Measurements taken from ChEMBL document CHEMBL4823298, “In vitro anti-Leishmania activity and molecular docking of spiro-acridine compounds as potential multitarget agents against Leishmania infantum” (Bioorg Med Chem Lett, 2021).
In brackets after ≈: the same amount, converted by molar mass.

Columns and labels:
Leishmania infantum [1] = assay: Antileishmanial activity against promastigote form of Leishmania infantum assessed as inhibition of parasite growth; assay type: functional, organism-based
[2] = Cytotoxicity against human erythrocytes; assay type: cell-based, Erythrocyte
[3] = Selectivity index, ratio of CC50 for PBMC (unknown origin) to EC50 for anti-leishmanial activity against axenic amastigote stage of Leishmania infantum; assay type: toxicity; details: read-out: Ratio CC50/EC50
[4] = Cytotoxicity against PBMC (unknown origin)
Leishmania infantum [5] = assay: Antileishmanial activity against axenic amastigote stage of Leishmania infantum assessed as reduction in parasite growth at 0.7812 ug/ml; assay type: functional
Leishmania infantum [6] = assay: Antileishmanial activity against axenic amastigote stage of Leishmania infantum assessed as reduction in parasite growth at 6.25 to 12.5 ug/ml; assay type: functional; details: dose 6.25-12.5 µg/ml; at 6.25 to 12.5 µg/mL
Leishmania infantum [7] = assay: Antileishmanial activity against axenic amastigote stage of Leishmania infantum assessed as reduction in parasite growth; assay type: functional, organism-based
[8] = Inhibition of Leishmania donovani Topoisomerase 1
[9] = Inhibition of Leishmania Trypanothione reductase

Row | SMILES | IC50 (Leishmania infantum [1]) [mg/L] | HC50 [2] [µg/mL] | also measured
1 | N#CC1=CC2(c3ccccc3Nc3ccccc32)N(/N=C\c2ccc(F)cc2)C1=O | 4.11 (≈ 10.4 µM) | > 400 | 
2 | N#CC1=CC2(c3ccccc3Nc3ccccc32)N(/N=C\c2ccccc2)C1=O | 2.04 (≈ 5.42 µM) | > 400 | selectivity ratio [3]: 8.9; CC50 [4]: 44.2 mg/L (≈ 117 µM); inhibition at 0.7812 µg/mL (Leishmania infantum [5]): 21.7%; inhibition (INH) (Leishmania infantum [6]): 65%; EC50 (Leishmania infantum [7]): 4.96 mg/L (≈ 13.2 µM)
3 | N#CC1=CC2(c3ccccc3Nc3ccccc32)N(/N=C\c2ccc([N+](=O)[O-])cc2)C1=O | 5.33 (≈ 12.7 µM) | > 400 | 
4 | N#CC1=CC2(c3ccccc3Nc3ccccc32)N(/N=C\c2c(Cl)cccc2Cl)C1=O | 2.63 (≈ 5.91 µM) | > 400 | 
5 | N#CC1=CC2(c3ccccc3Nc3ccccc32)N(/N=C\c2ccccc2[N+](=O)[O-])C1=O | 3.78 (≈ 8.97 µM) | > 400 | 
6 | N#CC1=CC2(c3ccccc3Nc3ccccc32)N(/N=C\c2ccc(Cl)cc2Cl)C1=O | 3.89 (≈ 8.74 µM) | > 400 | 
7 | CN(C)c1ccc(/C=N\N2C(=O)C(C#N)=CC23c2ccccc2Nc2ccccc23)cc1 | 1.11 (≈ 2.64 µM) | > 400 | selectivity ratio [3]: > 103; CC50 [4]: > 100 mg/L; inhibition at 0.7812 µg/mL (Leishmania infantum [5]): 33.2%; inhibition (INH) (Leishmania infantum [6]): 65%; EC50 (Leishmania infantum [7]): 0.974 mg/L (≈ 2.32 µM)
8 | N#CC1=CC2(c3ccccc3Nc3ccccc32)N(/N=C\c2ccc(Cl)cc2)C1=O | 5.68 (≈ 13.8 µM) | > 400 | 
9 | CCOc1cc(/C=N\N2C(=O)C(C#N)=CC23c2ccccc2Nc2ccccc23)ccc1O | 6.06 (≈ 13.9 µM) | > 400 | 
10 | C[C@@H]1[C@H](O)[C@@H](C)/C=C/C=C/C=C/C=C/C=C/C=C/C=C/[C@H](O[C@@H]2O[C@H](C)[C@@H](O)[C@H](N)[C@@H]2O)C[C@@H]2O[C@](O)(C[C@@H](O)C[C@@H](O)[C@H](O)CC[C@@H](O)C[C@@H](O)CC(=O)O[C@H]1C)C[C@H](O)[C@H]2C(=O)O [AMPHOTERICIN B] | 0.9 (≈ 0.974 µM) |  | selectivity ratio [3]: 4.78; CC50 [4]: 7.63 mg/L (≈ 8.26 µM); EC50 (Leishmania infantum [7]): 1.6 mg/L (≈ 1.73 µM)
11 | CC[C@@]1(O)C(=O)OCc2c1cc1n(c2=O)Cc2cc3ccccc3nc2-1 [CAMPTOTHECIN] |  |  | EC50 [8]: 0.7 µM
12 | CN(C)CCCN1c2ccccc2CCc2ccc(Cl)cc21 [CLOMIPRAMINE] |  |  | IC50 [9]: 3.8 µM
13 | OCCN1CCN(CCCN2c3ccccc3Sc3ccc(Cl)cc32)CC1 [PERPHENAZINE] |  |  | IC50 [9]: 4.88 µM
14 | CCN(CC)CCCC(C)Nc1c2ccc(Cl)cc2nc2ccc(OC)cc12 (stereo unspecified) [QUINACRINE] |  |  | IC50 [9]: 19 µM
